# Molecular target: Beta-secretase 1 (Homo sapiens, UniProt P56817)
# Test: Inhibition of recombinant BACE1 (unknown origin)
# Beta-secretase 1, sequence (P56817 whole entry): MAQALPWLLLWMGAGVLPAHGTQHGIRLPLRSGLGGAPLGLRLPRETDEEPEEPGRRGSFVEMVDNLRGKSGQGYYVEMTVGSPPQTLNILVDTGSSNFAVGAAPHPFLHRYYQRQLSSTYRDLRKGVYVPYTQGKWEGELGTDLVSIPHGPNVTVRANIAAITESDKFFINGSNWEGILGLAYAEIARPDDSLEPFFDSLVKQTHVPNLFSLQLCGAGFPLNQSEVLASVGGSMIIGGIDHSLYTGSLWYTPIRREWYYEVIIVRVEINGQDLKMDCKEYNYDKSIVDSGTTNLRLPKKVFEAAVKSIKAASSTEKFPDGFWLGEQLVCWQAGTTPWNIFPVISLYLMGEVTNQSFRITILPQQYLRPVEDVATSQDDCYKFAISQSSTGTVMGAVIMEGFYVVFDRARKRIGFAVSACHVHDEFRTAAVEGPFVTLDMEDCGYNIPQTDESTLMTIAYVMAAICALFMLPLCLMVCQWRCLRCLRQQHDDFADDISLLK
row,SMILES,Ki [nM]
1,Cc1csc(C[C@H](C)C(=O)N[C@@H](CNC(=O)OC(C)(C)C)C(=O)N[C@@H](CC(C)C)[C@@H](O)C[C@@H](C)C(=O)N[C@H](C(=O)NCC(C)C)C(C)C)n1,0.25
2,CC[C@@H](Cn1nc(C)cc1C)C(=O)N[C@@H](CNC(=O)OC(C)(C)C)C(=O)N[C@@H](CC(C)C)[C@@H](O)C[C@@H](C)C(=O)N[C@H](C(=O)NCC(C)C)C(C)C,63.1
3,Cc1cc(C)n(C[C@@H](C(=O)N[C@@H](CNC(=O)OC(C)(C)C)C(=O)N[C@@H](CC(C)C)[C@@H](O)C[C@@H](C)C(=O)N[C@H](C(=O)NCC(C)C)C(C)C)C(C)C)n1,471
4,Cc1cc(C)n(C[C@H](CC(C)C)C(=O)N[C@@H](CNC(=O)OC(C)(C)C)C(=O)N[C@@H](CC(C)C)[C@@H](O)C[C@@H](C)C(=O)N[C@H](C(=O)NCC(C)C)C(C)C)n1,148
5,Cc1ccn(C[C@H](C)C(=O)N[C@@H](CNC(=O)OC(C)(C)C)C(=O)N[C@@H](CC(C)C)[C@@H](O)C[C@@H](C)C(=O)N[C@H](C(=O)NCC(C)C)C(C)C)n1,201
6,CSC[C@H](NC(=O)[C@@H](C)Cn1nc(C)cc1C)C(=O)N[C@@H](CC(C)C)[C@@H](O)C[C@@H](C)C(=O)N[C@H](C(=O)NCC(C)C)C(C)C,64.2
7,Cc1cc(C)n(C[C@H](C)C(=O)N[C@@H](CS(C)(=O)=O)C(=O)N[C@@H](CC(C)C)[C@@H](O)C[C@@H](C)C(=O)N[C@H](C(=O)NCC(C)C)C(C)C)n1,192
8,Cc1nc(C[C@H](C)C(=O)N[C@@H](CNC(=O)OC(C)(C)C)C(=O)N[C@@H](CC(C)C)[C@@H](O)C[C@@H](C)C(=O)N[C@H](C(=O)NCC(C)C)C(C)C)cs1,31.9
9,CC[C@@H](Cc1csc(C)n1)C(=O)N[C@@H](CNC(=O)OC(C)(C)C)C(=O)N[C@@H](CC(C)C)[C@@H](O)C[C@@H](C)C(=O)N[C@H](C(=O)NCC(C)C)C(C)C,16.8
10,CC[C@@H](Cc1nc(C)cs1)C(=O)N[C@@H](CNC(=O)OC(C)(C)C)C(=O)N[C@@H](CC(C)C)[C@@H](O)C[C@@H](C)C(=O)N[C@H](C(=O)NCC(C)C)C(C)C,10.8
11,Cc1csc(C[C@@H](C(=O)N[C@@H](CNC(=O)OC(C)(C)C)C(=O)N[C@@H](CC(C)C)[C@@H](O)C[C@@H](C)C(=O)N[C@H](C(=O)NCC(C)C)C(C)C)C(C)C)n1,28.9

# Molecular target: T1, Beta-secretase 2 (Homo sapiens, UniProt Q9Y5Z0)
# T1 sequence (Q9Y5Z0 whole entry): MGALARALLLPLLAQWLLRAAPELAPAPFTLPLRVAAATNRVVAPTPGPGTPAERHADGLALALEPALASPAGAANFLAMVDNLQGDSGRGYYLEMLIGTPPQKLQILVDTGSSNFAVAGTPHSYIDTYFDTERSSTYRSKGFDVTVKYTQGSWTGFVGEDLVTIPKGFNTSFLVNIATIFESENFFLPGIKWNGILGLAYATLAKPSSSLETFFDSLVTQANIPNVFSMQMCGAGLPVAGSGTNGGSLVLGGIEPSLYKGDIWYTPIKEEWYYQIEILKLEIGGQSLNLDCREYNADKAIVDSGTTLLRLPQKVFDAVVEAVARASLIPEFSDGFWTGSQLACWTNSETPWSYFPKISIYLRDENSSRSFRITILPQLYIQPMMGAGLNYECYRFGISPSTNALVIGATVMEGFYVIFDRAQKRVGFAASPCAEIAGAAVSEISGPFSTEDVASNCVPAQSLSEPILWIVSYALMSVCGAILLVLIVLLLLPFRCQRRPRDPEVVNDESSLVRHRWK
# Test: Inhibition of memapsin 1 (unknown origin)
row,SMILES,Ki [nM]
1,Cc1csc(C[C@H](C)C(=O)N[C@@H](CNC(=O)OC(C)(C)C)C(=O)N[C@@H](CC(C)C)[C@@H](O)C[C@@H](C)C(=O)N[C@H](C(=O)NCC(C)C)C(C)C)n1,71

# Molecular target: Cathepsin D (Homo sapiens, UniProt P07339)
# Test: Inhibition of Cathepsin D (unknown origin)
# Cathepsin D, sequence (P07339 65-162 limits assumed): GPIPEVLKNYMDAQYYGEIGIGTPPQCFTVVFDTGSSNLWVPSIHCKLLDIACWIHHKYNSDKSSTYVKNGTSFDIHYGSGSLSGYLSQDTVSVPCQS
# Cathepsin D, sequence (P07339 169-412 limits assumed): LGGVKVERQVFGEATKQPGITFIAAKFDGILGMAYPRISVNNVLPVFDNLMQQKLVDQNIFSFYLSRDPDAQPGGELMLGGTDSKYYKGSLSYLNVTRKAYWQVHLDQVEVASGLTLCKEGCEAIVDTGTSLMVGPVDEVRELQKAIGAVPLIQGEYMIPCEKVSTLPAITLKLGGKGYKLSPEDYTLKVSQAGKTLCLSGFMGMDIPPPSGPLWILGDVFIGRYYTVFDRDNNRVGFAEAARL
row,SMILES,Ki [nM]
1,Cc1csc(C[C@H](C)C(=O)N[C@@H](CNC(=O)OC(C)(C)C)C(=O)N[C@@H](CC(C)C)[C@@H](O)C[C@@H](C)C(=O)N[C@H](C(=O)NCC(C)C)C(C)C)n1,1.25

# — ChEMBL document CHEMBL3351680, “Structure-based design, synthesis and biological evaluation of novel β-secretase inhibitors containing a pyrazole or thiazole moiety as the P3 ligand” (Bioorg Med Chem Lett, 2015)
